# Patent US12084472B2 (Ardelyx, Inc., priority 2015, dated 2024)
# Target: T1, human TGR5 (Homo sapiens, UniProt Q8TDU6)
# T1 construct: expressed in transfected cells; host or cells: HEK293
# T1 sequence (Q8TDU6 1-330): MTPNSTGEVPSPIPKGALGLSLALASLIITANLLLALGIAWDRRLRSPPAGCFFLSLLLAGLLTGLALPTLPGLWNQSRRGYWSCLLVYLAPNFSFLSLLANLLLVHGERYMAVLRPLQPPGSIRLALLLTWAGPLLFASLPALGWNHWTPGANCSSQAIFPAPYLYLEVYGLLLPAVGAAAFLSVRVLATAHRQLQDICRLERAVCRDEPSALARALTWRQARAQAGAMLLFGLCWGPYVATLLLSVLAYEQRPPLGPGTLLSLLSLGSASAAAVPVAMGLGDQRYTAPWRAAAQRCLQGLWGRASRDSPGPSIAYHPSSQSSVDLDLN
# Experiment: Cell-based TGR5 assay (cAMP generation, HTRF)
# Settings: HEK293 cells stably transfected with human TGR5; cAMP by HTRF; 30 minutes at 37° C.; read-out: pEC50 Human TGR5 (converted)
# Outline: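 First, compounds in 3-fold serial dilution were placed in HBSS with 10 mM HEPES pH 7.4 and 0.5 mM IBMX. Next, human TGR5-expressing HEK293 cells were added and incubated 30 min at 37° C. Finally, cAMP was detected by HTRF and pEC50 derived by logistic fitting.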
row,EC50,Structure (SMILES)
1,126 to 1000 nM,"Cc1ccccc1-c1ccncc1C1(NCc2cc(Cl)ccc2Cl)CC1 [Compound I-6, N-[(2,5-dichlorophenyl)methyl]-1-[4-(2-methylphenyl)pyridin-3-yl]cyclopropan-1-amine]"
2,< 100 nM,"COCCN(C[C@H](O)[C@@H](O)[C@H](O)[C@H](O)CO)C(=O)CCCSc1ccc(Cl)c(COC2(c3cnccc3-c3ccccc3OC3CC3)CC2)c1 [Compound I-664, 4-{[4-chloro-3-({1-[4-(2-cyclopropoxyphenyl)pyridin-3-yl]cyclopropoxy}methyl)phenyl]sulfanyl}-N-(2-methoxyethyl)-N-[(2S,3R,4R,5R)-2,3,4,5,6-pentahydroxyhexyl]butanamide]"
3,< 100 nM,"O=C1CCO[C@H]([C@@H](O)[C@H](O)[C@H](O)CO)CN1CCCCc1cc(Cl)c(COC2(c3cnccc3-c3ccccc3OC3CC3)CC2)cc1Cl [Compound I-78, (S)-4-(4-(2,5-dichloro-4-((1-(4-(2-cyclopropoxyphenyl)pyridin-3-yl)cyclopropoxy)methyl)phenyl)butyl)-2-((1S,2R,3R)-1,2,3,4-tetrahydroxybutyl)-1,4-oxazepan-5-one]"
4,< 100 nM,"O=C(NC[C@H](O)[C@@H](O)[C@H](O)[C@H](O)CO)N[C@@H](CCCCNS(=O)(=O)c1ccc(COC2(c3cnccc3-c3ccccc3OC3CC3)CC2)c(Cl)c1)C(=O)O [Compound I-485, (S)-6-(3-chloro-4-((1-(4-(2-cyclopropoxyphenyl)pyridine-3-yl)cyclopropoxy)methyl)phenylsulfonamido)-2-(3-((2S,3R,4R,5R)-2,3,4,5,6-pentahydroxyhexyl)ureido) hexanoic acid]"
5,126 to 1000 nM,"COc1cc(C)ccc1-c1ccncc1C1(OCc2cc(Cl)ccc2Cl)CC1 [Compound I-774, 3-(1-((2,5-dichlorobenzyl)oxy)cyclopropyl)-4-(2-methoxy-4-methylphenyl)pyridine]"
6,126 to 1000 nM,"CC(CCCC(=O)N(CC(=O)N(C)C)C[C@H](O)[C@@H](O)[C@H](O)[C@H](O)CO)c1ccc(Cl)c(CNC2(c3cnccc3-c3ccccc3OC3CC3)CC2)c1 (stereo partly drawn) [Compound I-340, 5-{4-chloro-3-[({1-[4-(2-cyclopropoxyphenyl)pyridin-3-yl]cyclopropyl}amino)methyl]phenyl}-N-[(dimethylcarbamoyl)methyl]-N-[(2S,3R,4R,5R)-2,3,4,5,6-pentahydroxyhexyl]hexanamide]"
7,1260 to 10000 nM,"Cc1ccc(SCCCN(CCOCCO)C(=O)[C@@H](O)[C@@H](O)[C@H](O)[C@@H](O)CO)cc1COC1(c2cnccc2-c2ccccc2OC2CC2)CC1 [Compound I-538, (2S,3S,4R,5S)-N-(3-{[3-({1-[4-(2-cyclopropoxyphenyl)pyridin-3-yl]cyclopropoxy}methyl)-4-methylphenyl]sulfanyl}propyl)-2,3,4,5,6-pentahydroxy-N-[2-(2-hydroxyethoxy)ethyl]hexanamide]"
8,126 to 1000 nM,"O=C(O)CCN(C[C@H](O)[C@@H](O)[C@H](O)[C@H](O)CO)C(=O)CCCCc1cc(Cl)c(CNC2(c3cnccc3-c3ccccc3OC3CC3)CC2)cc1Cl [Compound I-178, 3-(5-{2,5-dichloro-4-[({1-[4-(2-cyclopropoxyphenyl)pyridin-3-yl]cyclopropyl}amino)methyl]phenyl}-N-[(2S,3R,4R,5R)-2,3,4,5,6-pentahydroxyhexyl]pentanamido)propanoic acid]"
9,< 100 nM,"O=C([C@@H](O)[C@@H](O)[C@H](O)[C@@H](O)CO)N(CCCCO)CCCCSc1ccc(Cl)c(COC2(c3cnccc3-c3ccccc3OC3CC3)CC2)c1 [Compound I-513, (2S,3S,4R,5S)-N-(4-{[4-chloro-3-({1-[4-(2-cyclopropoxyphenyl)pyridin-3-yl]cyclopropoxy}methyl)phenyl]sulfanyl}butyl)-2,3,4,5,6-pentahydroxy-N-(4-hydroxybutyl)hexanamide]"
10,< 100 nM,"O=C(NCCOCCSc1ccc(Cl)c(COC2(c3cnccc3-c3ccccc3OC3CC3)CC2)c1)NC[C@H](O)[C@@H](O)[C@H](O)[C@H](O)CO [Compound I-490, 1-[2-(2-[[4-Chloro-3-([1-[4-(2-cyclopropoxyphenyl)pyridin-3-yl]cyclopropoxy]methyl)phenyl]sulfanyl]ethoxy)ethyl]-3-[(2S,3R,4R,5R)-2,3,4,5,6-pentahydroxyhexyl]urea]"
11,1260 to 10000 nM,"Clc1cc(Cl)cc(COC2(c3cnccc3-c3ccccc3OC3CC3)CC2)c1 [Compound I-56, 4-(2-cyclopropoxyphenyl)-3-{1-[(3,5-dichlorophenyl)methoxy]cyclopropyl}pyridine]"
12,126 to 1000 nM,"CC(C)(CCCc1cc(Cl)c(COC2(c3cnccc3-c3ccccc3OC3CC3)CC2)cc1Cl)C(=O)NC[C@H](O)[C@@H](O)[C@H](O)[C@H](O)CO [Compound I-144, 5-[2,5-dichloro-4-({1-[4-(2-cyclopropoxyphenyl)pyridin-3-yl]cyclopropoxy}methyl)phenyl]-2,2-dimethyl-N-[(2S,3R,4R,5R)-2,3,4,5,6-pentahydroxyhexyl]pentanamide]"
13,< 100 nM,"CC(=O)N1CCCN(S(=O)(=O)c2ccc(Cl)c(COC3(c4cnccc4-c4ccccc4OC4CC4)CC3)c2)CC1 [Compound I-732, 1-(4-[[4-chloro-3-([1-[4-(2-cyclopropoxyphenyl)pyridin-3-yl]cyclopropoxy]methyl)benzene]sulfonyl]-1,4-diazepan-1-yl)ethan-1-one]"
14,< 100 nM,"Cc1cc(COC2(c3cnccc3-c3ccccc3OC3CC3)CC2)c(Cl)cc1CCCCNC(=O)NC[C@@H]1O[C@H](C(=O)O)[C@@H](O)[C@H](O)[C@H]1O [Compound I-110, (2S,3S,4R,5R,6S)-6-{[({4-[5-chloro-4-({1-[4-(2-cyclopropoxyphenyl)pyridin-3-yl]cyclopropoxy}methyl)-2-methylphenyl]butyl}carbamoyl)amino]methyl}-3,4,5-trihydroxyoxane-2-carboxylic acid]"
15,126 to 1000 nM,"O=C([C@@H](O)[C@@H](O)[C@H](O)[C@@H](O)CO)N(CCCSc1ccc(Cl)c(COC2(c3cnccc3-c3ccccc3OC3CC3)CC2)c1)C1CCOCC1 [Compound I-565, (2S,3S,4R,5S)-N-(3-{[4-chloro-3-({1-[4-(2-cyclopropoxyphenyl)pyridin-3-yl]cyclopropoxy}methyl)phenyl]sulfanyl}propyl)-2,3,4,5,6-pentahydroxy-N-(oxan-4-yl)hexanamide]"
16,1260 to 10000 nM,"NC(=O)CCN(C[C@H](O)[C@@H](O)[C@H](O)[C@H](O)CO)C(=O)CCCSc1ccc(Cl)c(COC2(c3cnccc3-c3ccccc3OC3CC3)CC2)c1 [Compound I-675, N-(2-carbamoylethyl)-4-{[4-chloro-3-({1-[4-(2-cyclopropoxyphenyl)pyridin-3-yl]cyclopropoxy}methyl)phenyl]sulfanyl}-N-[(2S,3R,4R,5R)-2,3,4,5,6-pentahydroxyhexyl]butanamide]"
17,< 100 nM,"Cc1ccc(Cl)c(CNC2(c3cnccc3-c3ccccc3OC3CC3)CC2)n1 [Compound I-35, N-[(3-chloro-6-methylpyridin-2-yl)methyl]-1-[4-(2-cyclopropoxyphenyl)pyridin-3-yl]cyclopropan-1-amine]"
18,< 100 nM,"COc1cc(Cl)c(COC2(c3cnccc3-c3ccccc3OC3CC3)CC2)cc1S(=O)(=O)N(C)C [Compound I-730, 4-chloro-5-([1-[4-(2-cyclopropoxyphenyl)pyridin-3-yl]cyclopropoxy]methyl)-2-methoxy-N,N-dimethylbenzene-1-sulfonamide]"
